In patent publication US11452723B2, “Combination dosage form of a mu opioid receptor antagonist and an opioid agent” (THERAVANCE BIOPHARMA R&D IP, LLC, priority 2015, dated 2022):
Counter-ions that a name gives are not always drawn.

Assays:
[1] = as described in U.S. Pat. No. 7,943,772; cited from earlier work
[2] = Excipient compatibility study: chemical stability of films at 40° C./88% RH by HPLC; assay type: physicochemical; details: T = 0; no coating material (ratio N/A)
Procedure: The compatibility of axelopran with four compositions of commercial coating materials was studied as a function of ratio of coating material to axelopran. Mixtures of axelopran sulfate and the materials of Table 15 were dried at 40° C. in weighing boats to form films. Chemical stability of the films stored at accelerated conditions of 40° C. and 88% relative humidity for 2 weeks were analyzed by HPLC.

mu opioid receptor = target: T1, mu opioid receptor (Homo sapiens, UniProt P35372); details: non-cancer pain patients on a stable opioid regimen; cited from earlier work
T1 construct: host or cells: patients (endogenous peripheral/gastrointestinal receptors)
T1 sequence (P35372 whole entry): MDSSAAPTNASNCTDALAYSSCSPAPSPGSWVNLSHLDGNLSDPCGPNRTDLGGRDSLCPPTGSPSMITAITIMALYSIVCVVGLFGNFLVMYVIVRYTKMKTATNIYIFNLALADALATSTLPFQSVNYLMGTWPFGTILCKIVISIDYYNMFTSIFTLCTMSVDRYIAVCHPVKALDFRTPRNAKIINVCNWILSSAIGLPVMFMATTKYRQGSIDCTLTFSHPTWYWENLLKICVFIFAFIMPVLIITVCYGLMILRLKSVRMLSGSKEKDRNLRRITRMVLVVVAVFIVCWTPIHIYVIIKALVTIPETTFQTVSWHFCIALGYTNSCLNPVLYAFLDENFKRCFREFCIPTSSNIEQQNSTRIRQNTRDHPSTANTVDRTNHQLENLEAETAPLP

NC(=O)c1cccc([C@H]2C[C@H]3CC[C@@H](C2)N3CCN(CC2CCCCC2)C(=O)[C@@H](O)CO)c1 [amorphous axelopran]
stability of solid form (in words) [1]: not sufficiently stable for use in a drug product

NC(=O)c1cccc([C@H]2C[C@H]3CC[C@@H](C2)N3CCN(CC2CCCCC2)C(=O)[C@@H](O)CO)c1 [axelopran sulfate]
stability of solid form (in words) [1]: forms a stable crystalline form

NC(=O)c1cccc([C@H]2C[C@H]3CC[C@@H](C2)N3CCN(CC2CCCCC2)C(=O)[C@@H](O)CO)c1 [axelopran, 3-((1R,3r,5S)-8-(2-((cyclohexylmethyl)((2S)-2,3-dihydroxypropanoyl)amino)ethyl)-8-azabicyclo[3.2.1]octan-3-yl)benzamide]
Axelopran Assay [2]: 99.70 % Area
amelioration of symptoms of opioid induced constipation (in words) (mu opioid receptor): ameliorate the symptoms of OIC in non-cancer pain patients on a stable opioid regimen without compromising analgesia
